The structures appear in SMILES notation.

In the first test the target is T1, cloned human glucagon receptor (Homo sapiens, UniProt P47871).
T1 construct: expressed in transfected cells; cell membranes used
T1 sequence (P47871 26-477): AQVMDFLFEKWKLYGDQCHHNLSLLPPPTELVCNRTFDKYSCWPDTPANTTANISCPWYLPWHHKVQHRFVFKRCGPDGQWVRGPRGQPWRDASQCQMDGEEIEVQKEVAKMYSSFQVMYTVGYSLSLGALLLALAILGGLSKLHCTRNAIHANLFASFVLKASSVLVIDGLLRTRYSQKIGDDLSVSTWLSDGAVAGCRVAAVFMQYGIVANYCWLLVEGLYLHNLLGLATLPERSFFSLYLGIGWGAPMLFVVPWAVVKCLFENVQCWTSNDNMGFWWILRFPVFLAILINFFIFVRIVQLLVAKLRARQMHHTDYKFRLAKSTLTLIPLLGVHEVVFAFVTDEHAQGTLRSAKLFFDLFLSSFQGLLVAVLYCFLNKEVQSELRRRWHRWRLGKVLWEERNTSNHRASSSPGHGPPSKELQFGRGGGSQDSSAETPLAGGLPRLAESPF
Briefly: Glucagon Receptor Binding Assay (125I-Glucagon, SPA, CHO cell membranes). As to conditions: inhibition of 125I-Glucagon binding to membranes of CHO cells expressing human glucagon receptor; more active isomer of indicated compounds. On the procedure: Glucagon Receptor Binding Assay
A stable CHO (Chinese hamster ovary) cell line expressing cloned human glucagon receptor was maintained as described (Chiechi, et. al. J Biol Chem 272, 7765-9(1997); Cascieri, et. al. J Biol Chem 274, 8694-7(1999)). To determine antagonistic binding affinity of compounds, 0.001-0.003 mg of cell membranes from these cells were pre-incubated with 0.100 mg WGA-coated PVT SPA beads (Amersham) for 20 minutes at room temperature in 25 μL of a buffer containing 50 mM Tris-HCl (pH 7.5), 5 mM MgCl2, 2 mM EDTA, 0.1% BSA and 3% glycerol in Costar 384 well plates with clear bottoms (#3706). Next, 25 μL of ^125I-Glucagon (New England Nuclear, MA) (1×10^−14 mol per well) and either 1 μL solutions of test compounds or 0.001 mM unlabeled glucagon or DMSO were added and mixed. After 4-12 hours incubation at room temperature, the radioactivity bound to the cell membranes was determined in a radioactive emission detection counter (Wallac-Microbeta). Data were analyzed using the Data Analyzer software program of Merck & Co., Inc. The IC50 values were calculated using non-linear regression analysis assuming single-site competition.
As to `CCCC(c1ccc(C(=O)NCCC(=O)O)cc1)C(C(=O)N1Cc2ccc(-c3cc(OC)ccn3)cc2C1)c1ccc(Cl)cc1` (stereo not shown) [Example 13], the IC50 (in general, the midpoint of a concentration-inhibition curve) is 2 nM.
Still for that read-out and setting: to `CCCC(c1ccc(C(=O)NCCC(=O)O)cc1)C(C(=O)N1Cc2ccc(C(F)(F)F)cc2C1)c1ccc(C(F)(F)F)cc1` (stereo not shown) [Example 6] belongs 0.4 nM; to `CCCC(c1ccc(C(=O)NCCC(=O)O)cc1)C(C(=O)N1Cc2cccc(C)c2C1)c1ccc(Cl)cc1` (single isomer, unassigned) [Example 49], 0.1 nM.
Still for that read-out and setting: to `CCCC(c1ccc(C(=O)NCCC(=O)O)cc1)C(C(=O)N1Cc2ccc(-c3ccc(OC)nc3)cc2C1)c1ccc(C(F)(F)F)cc1` (stereo not shown) [Example 8] belongs 0.4 nM; to `CCCC(c1ccc(C(=O)NC(C)CC(=O)O)cc1)C(C(=O)N1Cc2ccc(OC(F)(F)F)cc2C1)c1ccc(Cl)cc1` (mixture of isomers) [Example 101], 5.9 nM.
The molecule `CCCC(c1ccc(C(=O)NCCC(=O)O)cc1)C(C(=O)N1Cc2cc(Cl)cc(Cl)c2C1)c1ccc(Cl)cc1` (single isomer, unassigned) [Example 55] returned an IC50 of 0.6 nM.
Still for that read-out and setting: to `CCCC(c1ccc(C(=O)NCCC(=O)O)cc1)C(C(=O)N1Cc2ccc(-c3ccc(OC)nc3)cc2C1)c1cc(F)cc(F)c1` (stereo not shown) [Example 9] belongs 0.4 nM; to `CCCC(c1ccc(C(=O)NCCC(=O)O)cc1)C(C(=O)N1CCc2ccc(-c3ccc(C)cc3)cc2C1)c1ccc(Cl)cc1` (single isomer, unassigned) [Example 88], 3.2 nM; to `CCCC(c1ccc(C(=O)NCCC(=O)O)cc1)C(C(=O)N1Cc2cccc(C(F)(F)F)c2C1)c1ccc(Cl)cc1` (single isomer, unassigned) [Example 1, N-[4-(1-{1-(4-chlorophenyl)-2-oxo-2-[4-(trifluoromethyl)-1,3-dihydro-2H-isoindol-2-yl]ethyl}butyl)benzoyl]-β-alanine], 0.8 nM.
`CCCC(c1ccc(C(=O)NCCS(=O)(=O)O)cc1)C(C(=O)N1Cc2ccc(C(F)(F)F)cc2C1)c1ccc(Cl)cc1` (stereo not shown) [Example 107] gave an IC50 of 1.1 nM.
On the same count and under the same terms, as for `CCCC(c1ccc(C(=O)NCCC(=O)O)cc1)C(C(=O)N1Cc2ccc(C#N)cc2C1)c1ccc(Cl)cc1` (stereo not shown) [Example 36], the figure is 5.5 nM; as for `CCCC(c1ccc(C(=O)NCC(O)C(=O)O)cc1)C(C(=O)N1Cc2ccc(OC(F)(F)F)cc2C1)c1ccc(Cl)cc1` (mixture of isomers) [Example 99], 1.1 nM.
`CCCC(c1ccc(C(=O)NCCC(=O)O)cc1)C(C(=O)N1CCc2cc(-c3ccc(C)cc3)ccc2C1)c1ccc(Cl)cc1` (single isomer, unassigned) [Example 70] registered a half-inhibitory concentration (IC50) of 1.6 nM.
With `CCCC(c1ccc(C(=O)NCCC(=O)O)cc1)C(C(=O)N1Cc2ccc(-c3cccnc3OC)cc2C1)c1ccc(Cl)cc1` (single isomer, unassigned) [Example 4, N-[4-(1-{1-(4-chlorophenyl)-2-[5-(2-methoxypyridin-3-yl)-1,3-dihydro-2H-isoindol2-yl]-2-oxoethyl}butyl)benzoyl]-β-alanine], the IC50 turned out to be 0.5 nM.
Still for that read-out and setting: to `CCCC(c1ccc(C(=O)NCCC(=O)O)cc1)C(C(=O)N1CCc2cc(C(F)(F)F)ccc2C1)c1ccc(Cl)cc1` (single isomer, unassigned) [Example 80] belongs 0.9 nM; to `CCCC(c1ccc(C(=O)NCCC(=O)O)cc1)C(C(=O)N1CCc2ccccc21)c1ccc(Cl)cc1` (racemic) [Example 3, N-(4-{1-[1-(4-chlorophenyl)-2-(2,3-dihydro-1H-indol-1-yl)-2-oxoethyl]butyl}benzoyl)-β-alanine], 10 nM.
For `CCCC(c1ccc(C(=O)NCCC(=O)O)cc1)C(C(=O)N1CCc2cc(OC)ccc2C1)c1ccc(Cl)cc1` (single isomer, unassigned) [Example 79], the IC50 was found to be 1.5 nM.
As to `CCCC(c1ccc(C(=O)NCCC(=O)O)cc1)C(C(=O)N1Cc2ccc(-c3ccnc(C)c3)cc2C1)c1ccc(Cl)cc1` (stereo not shown) [Example 30], the IC50 came out at 0.6 nM.
Same read-out and setting: to `CCCC(c1ccc(C(=O)NCCC(=O)O)cc1)C(C(=O)N1CCCc2ccccc21)c1ccc(Cl)cc1` (single isomer, unassigned) [Example 2, N-(4-{1-[1-(4-chlorophenyl)-2-(3,4-dihydroquinolin-1(2H)-yl)-2-oxoethyl]butyl}benzoyl)-β-alanine] belongs 48 nM; to `CCCC(c1ccc(C(=O)NCCC(=O)O)cc1)C(C(=O)N1Cc2ccc(C)cc2C1)c1ccc(Cl)cc1` (stereo not shown) [Example 37], 0.6 nM; to `CCCC(c1ccc(C(=O)NCCC(=O)O)cc1)C(C(=O)N1CCc2cc(-c3ccc(C)cc3)ccc21)c1ccc(Cl)cc1` (stereo not shown) [Example 63], 0.2 nM.
Still for that read-out and setting: as for `CCCC(c1ccc(C(=O)NCCC(=O)O)cc1)C(C(=O)N1Cc2ccc(-c3ccc(OC)nc3)cc2C1)c1ccc(Cl)cc1` (stereo not shown) [Example 41], the figure is 0.6 nM; as for `CCCC(c1ccc(C(=O)NCCC(=O)O)cc1)C(C(=O)N1CCc2cc(-c3ccc(Cl)cc3)ccc2C1)c1ccc(Cl)cc1` (single isomer, unassigned) [Example 69], 1 nM.
Take `CCCC(c1ccc(C(=O)NCCC(=O)O)cc1)C(C(=O)N1CCc2ccc(F)cc2C1)c1ccc(Cl)cc1` (single isomer, unassigned) [Example 93]: the IC50 amounted to 9.8 nM. Compared with the last molecule, the IC50 is about 9.8-fold higher.
On the same count and under the same terms, as for `CCCC(c1ccc(C(=O)Nc2nnn[nH]2)cc1)C(C(=O)N1Cc2ccc(OC(F)(F)F)cc2C1)c1ccc(Cl)cc1` (stereo not shown) [Example 5], the figure is 2.2 nM; as for `CCCC(c1ccc(C(=O)NCCC(=O)O)cc1)C(C(=O)N1CCc2cc(C)ccc2C1)c1ccc(Cl)cc1` (single isomer, unassigned) [Example 82], 0.4 nM.

Still in this test, the particulars now being: racemic diastereomers of Example 5 separated by reverse-phase HPLC; assay not given.
Take `CCCC(c1ccc(C(=O)Nc2nnn[nH]2)cc1)C(C(=O)N1Cc2ccc(OC(F)(F)F)cc2C1)c1ccc(Cl)cc1` (stereo not shown) [Example 5]: the “potency as glucagon receptor antagonist relative to the other diastereomer” value is recorded as “more potent”.
The same measure, in the same setting: to `CCCC(c1ccc(C(=O)Nc2nnn[nH]2)cc1)C(C(=O)N1Cc2ccc(OC(F)(F)F)cc2C1)c1ccc(Cl)cc1` (single isomer, unassigned) [Example 5 Minor isomer] belongs “less potent”.
